Measured values reported in paper PMC8997995, “Amphiphilic Cell-Penetrating Peptides Containing Natural and Unnatural Amino Acids as Drug Delivery Agents” (Cells, 2022).
Like-named read-outs stand apart in the source and are kept apart here. Non-standard residues stand in square brackets, D forms with d. Residues, ends and D or L forms follow the SMILES beside them. *: point of attachment. 5FAM = O=C1OC2(c3ccc(O)cc3Oc3cc(O)ccc32)c2ccc(C(=O)*)cc21; Dip = N[C@H](C(=O)O)C(c1ccccc1)c1ccccc1

Tests used:
[1] = set-up: method as in earlier work; settings: cited from earlier work
Text: In continuation of our efforts to design cyclic CPPs with improved molecular transporter properties, we report here the design and synthesis of a new class of CPPs, containing R, diphenylalanine (Dip), and W residues (Figure 1), the evaluation of their cytotoxicity, cellular uptake, nanostructure formation, and mechanism of actions.

[2] = system: CCRF-CEM cells; test: In vitro cytotoxicity (MTS) in CCRF-CEM cells; assay type: cell-based, human; settings: for reduction of cell proliferation: 25 µM, MTS, n = 3
Description: (§1) SK-OV-3, CCRF-CEM, HEK-293, MDA-MB-468, LLC-PK1, and MES-SA were used to determine the cytotoxicity of the synthesized linear and cyclic peptides. About 5000, 10,000, and 50,000 cells were seeded for SK-OV-3, HEK-293, and CCRF-CEM cells, respectively, in 0.1 mL of medium per well of 96-well plates. An appropriate medium was used for each cell line (SK-OV-3: McCoy’s 5A with L-glutamine containing fetal bovine serum (FBS) (10%) and penicillin or streptomycin (1%); CCRF-CEM: RPMI-1640 medium with L-glutamine and sodium bicarbonate containing FBS (10%) and penicillin or streptomycin (1%); MDA-MB-468 cells: DMEM/F12 (1:1) (1×) with L-glutamine and 15 mM HEPES containing FBS (10%) and penicillin or streptomycin (1%); LLC-PK1 cells: Dulbecco’s Modified Eagle’s Medium with 4500 mg/L glucose, L-glutamine and sodium bicarbonate, without sodium pyruvate liquid containing FBS (10%) and penicillin or streptomycin (1%); MES-SA cells: consisting of half SK-OV-3 and half CCRF-CEM media; and HEK-293 cells: Minimum Essential Medium Eagle with Earle’s salts and sodium bicarbonate, without L-glutamine containing FBS (10%) and penicillin or streptomycin (1%)). Then, 20 µL of peptides containing 5% DMSO in water were added to each well.
(§2) Adhesive cells were detached with 0.05% trypsin/EDTA after 15 min. The suspended cells were seeded in the medium 24 h prior to the experiment according to the previously reported procedure. The medium was changed before adding the peptides for adherent cells. Each concentration 5, 10, 25, 50, and 166 µM (containing 0.8% DMSO) had triplicate wells to minimize possible errors. […] The cell viability was measured by utilizing Multi-Mode Microplate Reader (SpectraMax M5 model, Molecular Devices, San Jose, CA, USA) after adding 20 µL of the MTS reagent to each well and incubating for 3 additional hours. […] The protocol manager was selected “endpoint” on the spectrophotometer’s software (SoftMax Pro 7). The 96-well plates were inserted inside spectrophotometer, and the data were acquired. The percentage of cell viability was calculated using the following equation:(1) =(Average OD values of samples treated with the compound /Average OD values of no treatment samples )∗100

[3] = Transmission electron microscopy, self-assembly; assay type: physicochemical; settings: TEM, 30 μM, dried on grid overnight, not stained
Description: Transmission electron microscopy (TEM) was done on a LVEM 5D Microscope model (Delong instruments, Brno, Czech Republic) samples were prepared on an Ultrathin Carbon Film on Lacey Carbon Support Film with 400 mesh copper from Ted Pella. Dilute solutions of 30 μM concentration were used for the TEM analysis. Samples were dropped on grids, evaporated overnight, and not stained. They were incubated for approximately 2 h after thawing from a freezer (0 to −18 °C). Samples were air-dried, and images were obtained with a LVEM5 (Delong Instruments, US) 5 keV field emission gun. The camera was Zyla 5.5 Scientific CMOS with specifications of exposure 50–200 [ms], pixel readout 200 MHz—lowest noise, dynamic range 12-bit (low noise), and summing 1.

[4] = system: CCRF-CEM cells; test: Cellular uptake by flow cytometry in CCRF-CEM cells; assay type: cell-based, human; settings: peptide 10 µM, 3 h, no FBS, flow cytometry FITC, n = 3
Description: CCRF-CEM and SK-OV-3 cells were used to measure the cellular uptake of a fluorescent-labeled phosphopeptide (F’-GpYEEI) (2 µM), stavudine (F’-d4T) (2 µM) lamivudine (F’-3TC) (1–2 µM), emtricitabine (F’-FTC) (2 µM), and siRNA (F’-siRNA) (36 nM) with the least toxic concentration for each linear and the cyclic peptide (10 µM). The uptake was measured in the presence and absence of the peptides. The SK-OV-3 (0.5 million) and CCRF-CEM (a million) cells were incubated in each well of 6-well plates with the synthesized peptide and the fluorescent-labeled compound in one well. Another well contained the fluorescent-labeled compound alone for 3 h in an incubator (37 °C in a humidified atmosphere of 5% CO2). […] For more details, please refer back to the cytotoxicity method described above.
The cells were transferred to FACS analysis tubes after being washed with phosphate-buffered saline (PBS). The cells were centrifuged 2500 RPM for 5 min with Fisher Scientific accuSpin Micro 17 to precipitate the cells and to allow replacing the supernatant. The cells were then vortexed with Nerl Blood Bank Saline pH 7–7.2 (flow cytometry buffer) and transferred to the tube through a sterile cell strainer 40 µm Nylon Mesh. Finally, the cells were resuspended in flow cytometry buffer and analyzed by flow cytometry (FACSVerse model, Becton Dickinson, San Jose, CA, USA) using the FITC channel and the BD FACSuite software. The device was washed before each experiment, and the flow rate was set at medium. Finally, the cells were analyzed by using FITC channel […] argon laser for the excitation and the emitted 519 nm fluorescence for detection. The data presented was based on the FITC-A mean intensity signal for 10,000 cells collected. All assays were performed in triplicates. Results were evaluated to determine whether the peptides are facilitating the fluorescence compound to cross the membrane.
To determine the mechanism of the cellular uptake, F’-[K(DipR)5] or the physical mixture of the F’-GpYEEI and [DipR]5 were used to measure the fluorescence in the treated CCRF-CEM cells. F’-[K(DipR)5] (5 or 10 µM) or the physical mixture of the F’-GpYEEI (2 µM) and [DipR]5 (5 or 10 µM) were incubated with CCRF-CEM cells over 3 h. After each incubation, the medium containing the peptide and cells was removed. The same protocol as the cellular uptake study was used to prepare the cells as described above. Finally, the cells were resuspended in the buffer and analyzed by flow cytometry using the FITC channel and the BD FACSuite software. The data presented was based on the percentage of FITC-A mean intensity signal for 10,000 cells collected. All assays were performed in triplicates.

[5] = Circular dichroism, estimate of secondary structure; assay type: physicochemical; settings: CD, 100 µM peptide in water, principal component regression analysis
Description: Samples were prepared in 100 µM concentration dissolved in water only. The cuvette with the 1 mm path length was used for all the measurements. The circular dichroism analysis was performed with a J-1500 Jasco spectrophotometer using nitrogen gas and PM-539 detector. Parameters were selected as follows: data interval 0.1 nm, data points 701, data pitch 0.1 nm, CD scale 200 mdeg/0.1 dOD, FL scale 200 mdeg/0.1 dOD, D.I.T 2 s, bandwidth 1 nm, cell length 1 mm, start mode immediately, scanning mode continuous, scanning speed 50 nm/min, shutter control auto, and N2 flowmeter manual. An average of three readings between 190 and 260 nm were collected for each sample. The analysis was carried out using one of Multivariate Regression Analyses, which is Principal Component Regression (PCR) with a basis set containing 26 proteins reference under the following conditions: standardization of result 100, replaced negative value to zero, and rejection percentage of 1%.

[6] = system: HEK-293 cells; assay type: cell-based, human; settings: HEK-293, 25 µM, 24 h incubation, MTS
Description: SK-OV-3, CCRF-CEM, HEK-293, MDA-MB-468, LLC-PK1, and MES-SA were used to determine the cytotoxicity of the synthesized linear and cyclic peptides. About 5000, 10,000, and 50,000 cells were seeded for SK-OV-3, HEK-293, and CCRF-CEM cells, respectively, in 0.1 mL of medium per well of 96-well plates. […]
Adhesive cells were detached with 0.05% trypsin/EDTA after 15 min. […] The cell viability was measured by utilizing Multi-Mode Microplate Reader (SpectraMax M5 model, Molecular Devices, San Jose, CA, USA) after adding 20 µL of the MTS reagent to each well and incubating for 3 additional hours. […] The percentage of cell viability was calculated using the following equation:(1) =(Average OD values of samples treated with the compound /Average OD values of no treatment samples )∗100

[7] = system: SK-OV-3 cells; assay type: cell-based, human; settings: MTS, n = 3
Description: as §1, §2

| Other (random coil) [5] [%] | Turn [5] [%] | α-helix [5] [%] | β-sheet [5] [%] | Compound | other results |
| --- | --- | --- | --- | --- | --- |
| – | – | – | – | N[C@H](C(=O)O)C(c1ccccc1)c1ccccc1 [Dip, 3,3-diphenyl-L-alanine] | Log P (partition coefficient) [1]: 2.93 |
| – | – | – | – | N=C(N)NCCC[C@@H]1NC(=O)[C@H](C(c2ccccc2)c2ccccc2)NC(=O)[C@H](CCCNC(=N)N)NC(=O)[C@H](C(c2ccccc2)c2ccccc2)NC(=O)[C@H](CCCNC(=N)N)NC(=O)[C@H](C(c2ccccc2)c2ccccc2)NC(=O)[C@H](CCCNC(=N)N)NC(=O)[C@H](C(c2ccccc2)c2ccccc2)NC(=O)[C@H](CCCNC(=N)N)NC(=O)[C@H](C(c2ccccc2)c2ccccc2)NC(=O)[C@H](CCCCNC(=O)c2ccc3c(c2)C(=O)OC32c3ccc(O)cc3Oc3cc(O)ccc32)NC1=O [F’-[K(DipR)5]] (cyclo([Dip]R[Dip]R[Dip]R[Dip]R[Dip]RK(5FAM))) | cytotoxicity ([2]; 10 µM, 3 h and 24 h incubations): minimal cytotoxicity; cytotoxicity ([2]; 166 µM, 3 h incubation): no cytotoxicity |
| – | – | – | – | N[C@@H](Cc1c[nH]c2ccccc12)C(=O)O [W, tryptophan] | Log P (partition coefficient) [1]: 1.82 |
| 47.8 | 12.8 | 20.8 | 18.6 | N=C(N)NCCC[C@@H]1NC(=O)[C@H](Cc2c[nH]c3ccccc23)NC(=O)[C@H](CCCNC(=N)N)NC(=O)[C@H](Cc2c[nH]c3ccccc23)NC(=O)[C@H](CCCNC(=N)N)NC(=O)[C@H](C(c2ccccc2)c2ccccc2)NC(=O)[C@H](CCCNC(=N)N)NC(=O)[C@H](C(c2ccccc2)c2ccccc2)NC(=O)[C@H](CCCNC(=N)N)NC(=O)[C@H](Cc2c[nH]c3ccccc23)NC1=O [[(DipR)2(WR)3]] (cyclo([Dip]R[Dip]RWRWRWR)) | morphology of self-assembled structures [3]: star-shaped particles; size of self-assembled structures [3]: 1000–2000 nm; increase of cellular uptake of F’-GpYEEI vs cargo alone ([4]; F’-GpYEEI 2 µM): approximately 7 fold |
| 38.4 | 17.0 | 13.1 | 31.5 | N=C(N)NCCC[C@@H]1NC(=O)[C@H](Cc2c[nH]c3ccccc23)NC(=O)[C@H](CCCNC(=N)N)NC(=O)[C@H](C(c2ccccc2)c2ccccc2)NC(=O)[C@H](CCCNC(=N)N)NC(=O)[C@H](C(c2ccccc2)c2ccccc2)NC(=O)[C@H](CCCNC(=N)N)NC(=O)[C@H](C(c2ccccc2)c2ccccc2)NC(=O)[C@H](CCCNC(=N)N)NC(=O)[C@H](Cc2c[nH]c3ccccc23)NC1=O [[(DipR)3(WR)2]] (cyclo([Dip]R[Dip]R[Dip]RWRWR)) | – |
| 39.7 | 16.8 | 8.6 | 34.9 | N=C(N)NCCC[C@@H]1NC(=O)[C@H](Cc2c[nH]c3ccccc23)NC(=O)[C@H](CCCNC(=N)N)NC(=O)[C@H](C(c2ccccc2)c2ccccc2)NC(=O)[C@H](CCCNC(=N)N)NC(=O)[C@H](C(c2ccccc2)c2ccccc2)NC(=O)[C@H](CCCNC(=N)N)NC(=O)[C@H](C(c2ccccc2)c2ccccc2)NC(=O)[C@H](CCCNC(=N)N)NC(=O)[C@H](C(c2ccccc2)c2ccccc2)NC1=O [[(DipR)4(WR)]] (cyclo([Dip]R[Dip]R[Dip]R[Dip]RWR)) | – |
| 40.5 | 13.8 | 28.9 | 16.8 | N=C(N)NCCC[C@@H]1NC(=O)[C@H](Cc2c[nH]c3ccccc23)NC(=O)[C@H](CCCNC(=N)N)NC(=O)[C@H](Cc2c[nH]c3ccccc23)NC(=O)[C@H](CCCNC(=N)N)NC(=O)[C@H](C(c2ccccc2)c2ccccc2)NC(=O)[C@H](CCCNC(=N)N)NC(=O)[C@H](Cc2c[nH]c3ccccc23)NC(=O)[C@H](CCCNC(=N)N)NC(=O)[C@H](Cc2c[nH]c3ccccc23)NC1=O [[(DipR)(WR)4]] | reduction of cell proliferation [6]: 8%; morphology of self-assembled structures [3]: nanofiber structure; size of self-assembled structures [3]: ~50 nm; increase of cellular uptake of F’-d4T vs cargo alone ([4]; F’-d4T 2 µM): 12 fold; reduction of cell proliferation ([7]; SK-OV-3, 10 µM, 72 h incubation): 40%; reduction of cell proliferation ([7]; SK-OV-3, 25 µM, 24 h incubation): 76%; reduction of cell proliferation ([2]; 24 h incubation): 47%; reduction of cell proliferation ([2]; 72 h incubation): 32% |
